Data on 26 compounds can be found in BindingDB's records for doi:10.1016/s0960-894x(00)00026-3 (Universit&#224, 2000).

Experiment [1] in a line: Inhibition of Clostridium histolyticum collagenase using a linear regression program.
The nature of experiment [2]: Inhibition of Clostridium histolyticum collagenase (ChC) using a linear regression program.

As to `CC(C(=O)NO)N(Cc1ccc([N+](=O)[O-])cc1)S(=O)(=O)c1ccccc1[N+](=O)[O-]` (stereo unspecified) [N-Hydroxy-2-[(2-nitro-benzenesulfonyl)-(4-nitro-benzyl)-amino]-propionamide], the Ki (in general, the dissociation constant of the complex between target and ligand, obtained from inhibition or displacement) in experiment [1] amounted to 13 µM. In other words, the double-digit micromolar range. The same measure, in the same setting: under `CC(C(=O)O)N(Cc1ccc([N+](=O)[O-])cc1)C(=O)Nc1cccc2ccccc12` (stereo unspecified) [2-[3-Naphthalen-1-yl-1-(4-nitro-benzyl)-ureido]-propionic acid] stands 4.6 µM; under `CC(C(=O)NO)N(Cc1ccc([N+](=O)[O-])cc1)S(=O)(=O)c1ccc2ccccc2c1` (stereo unspecified) [N-Hydroxy-2-[(naphthalene-2-sulfonyl)-(4-nitro-benzyl)-amino]-propionamide], 8 µM. On the same count and under the same terms, with `CC(C(=O)NO)N(Cc1ccc([N+](=O)[O-])cc1)C(=O)Nc1ccc(F)cc1F` (stereo unspecified) [2-[3-(2,4-Difluoro-phenyl)-1-(4-nitro-benzyl)-ureido]-N-hydroxy-propionamide] the figure was 15 µM; with `CC(C(=O)O)N(Cc1ccc([N+](=O)[O-])cc1)C(=O)Nc1cccc(Cl)c1` (stereo unspecified) [2-[3-(3-Chloro-phenyl)-1-(4-nitro-benzyl)-ureido]-propionic acid], 6.1 µM; with `CC(C(=O)NO)N(Cc1ccc([N+](=O)[O-])cc1)S(=O)(=O)Cc1ccccc1` (stereo unspecified) [N-Hydroxy-2-[(4-nitro-benzyl)-phenylmethanesulfonyl-amino]-propionamide], 50 µM. The same measure, in the same setting: under `CC(C(=O)NO)N(Cc1ccc([N+](=O)[O-])cc1)S(=O)(=O)c1ccc(C(=O)O)cc1` (stereo unspecified) [4-[(1-Hydroxycarbamoyl-ethyl)-(4-nitro-benzyl)-sulfamoyl]-benzoic acid] stands 6 µM; under `CC(C(=O)O)N(Cc1ccc([N+](=O)[O-])cc1)S(=O)(=O)c1cccc2ccccc12` (stereo unspecified) [2-[(Naphthalene-1-sulfonyl)-(4-nitro-benzyl)-amino]-propionic acid], 1.2 µM. `CC(C(=O)NO)N(Cc1ccc([N+](=O)[O-])cc1)C(=O)NS(=O)(=O)c1ccc(F)cc1` (stereo unspecified) [2-[({[(4-fluorophenyl)sulfonyl]amino}carbonyl)(4-nitrobenzyl)amino]-N-hydroxypropanamide] came in with a Ki in experiment [1] of 9 µM. The same measure, in the same setting: with `CC(=O)Nc1ccc(S(=O)(=O)N(Cc2ccc([N+](=O)[O-])cc2)C(C)C(=O)O)cc1` (stereo unspecified) [2-[(4-Acetylamino-benzenesulfonyl)-(4-nitro-benzyl)-amino]-propionic acid] the figure was 3.1 µM. As to `CC(C(=O)NO)N(Cc1ccc([N+](=O)[O-])cc1)S(=O)(=O)c1ccc([N+](=O)[O-])c(Cl)c1` (stereo unspecified) [2-[(3-Chloro-4-nitro-benzenesulfonyl)-(4-nitro-benzyl)-amino]-N-hydroxy-propionamide], in experiment [2], the Ki amounted to 9 µM. In experiment [1], `CC(C(=O)NO)N(Cc1ccc([N+](=O)[O-])cc1)S(=O)(=O)c1cccc(C(F)(F)F)c1` (stereo unspecified) [N-Hydroxy-2-[(4-nitro-benzyl)-(3-trifluoromethyl-benzenesulfonyl)-amino]-propionamide] showed a Ki of 6 µM. The same measure, in the same setting: with `CC(C(=O)O)N(Cc1ccc([N+](=O)[O-])cc1)Sc1ccc([N+](=O)[O-])cc1[N+](=O)[O-]` (stereo unspecified) [2-[(2,4-Dinitro-phenylsulfanyl)-(4-nitro-benzyl)-amino]-propionic acid] the figure was 5.1 µM; with `CC(C(=O)O)N(Cc1ccc([N+](=O)[O-])cc1)C(=O)NS(=O)(=O)c1ccc(Cl)cc1` (stereo unspecified) [2-[({[(4-chlorophenyl)sulfonyl]amino}carbonyl)(4-nitrobenzyl)amino]propanoic acid], 2.4 µM. The same measure, in the same setting: under `CC(C(=O)O)N(Cc1ccc([N+](=O)[O-])cc1)Sc1ccccc1[N+](=O)[O-]` (stereo unspecified) [2-[(4-Nitro-benzyl)-(2-nitro-phenylsulfanyl)-amino]-propionic acid] stands 6.3 µM; under `CC(C(=O)O)N(Cc1ccc([N+](=O)[O-])cc1)C(=S)NC(=O)c1ccccc1` (stereo unspecified) [2-[3-Benzoyl-1-(4-nitro-benzyl)-thioureido]-propionic acid], 0.9 µM. `CC(C(=O)NO)N(Cc1ccc([N+](=O)[O-])cc1)S(C)(=O)=O` (stereo unspecified) [N-Hydroxy-2-[methanesulfonyl-(4-nitro-benzyl)-amino]-propionamide]: the Ki in experiment [1] was determined as 76 µM. This Ki lies about 84-fold higher than the previous one. The same measure, in the same setting: with `CC(C(=O)O)N(Cc1ccc([N+](=O)[O-])cc1)S(=O)(=O)c1ccc(Br)cc1` (stereo unspecified) [2-[(4-Bromo-benzenesulfonyl)-(4-nitro-benzyl)-amino]-propionic acid] the figure was 10 µM; with `CC(C(=O)NO)N(Cc1ccc([N+](=O)[O-])cc1)C(=O)NS(=O)(=O)c1ccc(Cl)cc1` (stereo unspecified) [2-[({[(4-chlorophenyl)sulfonyl]amino}carbonyl)(4-nitrobenzyl)amino]-N-hydroxypropanamide], 7 µM; with `CC(C(=O)NO)N(Cc1ccc([N+](=O)[O-])cc1)S(=O)(=O)c1ccc(NC(=O)OC(C)(C)C)cc1` (stereo unspecified) [{4-[(1-Hydroxycarbamoyl-ethyl)-(4-nitro-benzyl)-sulfamoyl]-phenyl}-carbamic acid tert-butyl ester], 10 µM. Regarding `CC(C(=O)NO)N(Cc1ccc([N+](=O)[O-])cc1)S(=O)(=O)c1cccc(C(=O)O)c1` (stereo unspecified) [3-[(1-Hydroxycarbamoyl-ethyl)-(4-nitro-benzyl)-sulfamoyl]-benzoic acid], the Ki in experiment [1] was found to be 9 µM. Still for that read-out and setting: under `CC(C(=O)O)N(Cc1ccc([N+](=O)[O-])cc1)S(=O)(=O)c1ccccc1` (stereo unspecified) [2-[Benzenesulfonyl-(4-nitro-benzyl)-amino]-propionic acid] stands 21 µM; under `CC(C(=O)NO)N(Cc1ccc([N+](=O)[O-])cc1)S(=O)(=O)c1ccc(I)cc1` (stereo unspecified) [N-Hydroxy-2-[(4-iodo-benzenesulfonyl)-(4-nitro-benzyl)-amino]-propionamide], 37 µM. On the same count and under the same terms, with `CC(C(=O)NO)N(Cc1ccc([N+](=O)[O-])cc1)S(=O)(=O)c1ccc([N+](=O)[O-])cc1` (stereo unspecified) [N-Hydroxy-2-[(4-nitro-benzenesulfonyl)-(4-nitro-benzyl)-amino]-propionamide] the figure was 10 µM; with `CC(=O)c1ccc(S(=O)(=O)N(Cc2ccc([N+](=O)[O-])cc2)C(C)C(=O)NO)cc1` (stereo unspecified) [2-[(4-Acetyl-benzenesulfonyl)-(4-nitro-benzyl)-amino]-N-hydroxy-propionamide], 9 µM. As to `CC(=O)c1ccc(S(=O)(=O)N(Cc2ccc([N+](=O)[O-])cc2)C(C)C(=O)O)cc1` (stereo unspecified) [2-[(4-Acetyl-benzenesulfonyl)-(4-nitro-benzyl)-amino]-propionic acid], affinity in experiment [1] was put at a Ki of 2.1 µM.
